Laboratory results reported in patent US20080103205A1, “Pesticidal compositions and methods of use” (priority 2006, published 2008).

Columns and labels:
[1] = system: European corn borer (Ostrinia nubilalis); assay: Diet surface test on European corn borer larvae (2nd instar); format: in vivo; conditions: for No. dead: 10 larvae
Description: Concentrations of 6.25, 12.5, 25, or 50 ppm AT blocker were prepared in 95% ethyl alcohol (EtOH). 95% EtOH alone served as control. European corn borer (ECB) diet prepared from the powdered diet supplied by French Agricultural Research, Inc. Diet (1-2 ml) was poured into small cups and allowed to cool to room temperature. Test solution (100 ul) was placed onto the diet surface and allowed to evaporate the solvent. Each concentration of chemical had 2 sets of 10 cups each. One late 2nd instar larva was placed in each cup and covered with lid having perforations for aeration. Cups were placed in an incubator for 7 days at 25±1° C. and 70±5% RH. After seven days, the weight of each larva was taken and any mortality was recorded. Then, the surviving larvae were transferred to fresh diet cups holding sufficient diet (5-6 ml) without chemicals and incubated at 25±1° C. and 70±5% RH until pupation. Weights of larvae were taken 14 days after transferring to fresh diet (21 days after start of treatment). Finally, the number of days until pupation was recorded.
Anion transporters caused larval death and a reduction in weight gain within 7 days exposure. The effect persisted for 2 weeks time on untreated diet, but total time to pupation was relatively unaffected.

[2] = system: Meloidogyne incognita eggs; assay: M. incognita egg hatching; format: in vivo
Description: Meloidogyne incognita (plant parasitic nematode) eggs were collected from tomato plant roots and were suspended in water. The solution was either diluted or concentrated to adjust the egg load to about 5000/ml. AT stock solutions prepared in DMSO and 300 ul of test solution was placed in a well, along with 20 ul of aqueous solution containing eggs. The number of eggs in 20 ul solution ranged from 115 to 143 (n=10). Each treatment (2, 5, 10, 20, or 40 ppm) was replicated 5 times. Microplates were sealed with Parafilm™ and incubated at room temperature. Similar tests conducted with 0.2% DMSO alone served as controls. Egg hatching was monitored at 24, 72, 120, and 168 hr after incubation. Both moving and non-moving nematodes were counted to arrive at the number of eggs hatched. Proportion of egg hatch was calculated as the number of juveniles divided by total number of eggs.
VSCC blockers effect on M. incognita egg hatching is shown in the following tables where % hatched is rounded to the nearest percentage point and where “% C*” is % hatch, normalized to control.

## O=C(O)c1c2ccccc2cc2ccccc12 [9-AC, anthracene-9-carboxylic acid]
[1]; 6.25 ppm, 7 days after feeding
  No. dead: 0
[1]; 6.25 ppm, 21 days after feeding
  No. dead: 0
[1]; 12.5 ppm, 7 days after feeding
  No. dead: 0
[1]; 12.5 ppm, 21 days after feeding
  No. dead: 0
[1]; 25 ppm
  Days for pupation: 26.0 days
[1]; 25 ppm, 7 days after feeding
  No. dead: 0
[1]; Ostrinia nubilalis, 168 h, 6.25 ppm, 7 days after feeding
  mortality at 6.25 ppm: 0%
[1]; Ostrinia nubilalis, 168 h, 12.5 ppm, 7 days after feeding
  mortality at 12.5 ppm: 0%
[1]; Ostrinia nubilalis, 168 h, 25 ppm, 7 days after feeding
  mortality at 25 ppm: 0%
[1]; Ostrinia nubilalis, 504 h, 6.25 ppm, 21 days after feeding
  mortality at 6.25 ppm: 0%
[1]; Ostrinia nubilalis, 504 h, 12.5 ppm, 21 days after feeding
  mortality at 12.5 ppm: 0%
[1]; Ostrinia nubilalis, 504 h, 50 ppm, 21 days after feeding
  mortality at 50 ppm: 60%
[2]; 2 ppm, 24 hr
  Eggs Hatched %: 10%
  Eggs Hatched % C* (% hatch, normalized to control): 100%
  Eggs Hatched No.: 65
[2]; 2 ppm, 72 hr
  Eggs Hatched %: 15%
  Eggs Hatched % C* (% hatch, normalized to control): 94%
  Eggs Hatched No.: 101
[2]; 2 ppm, 120 hr
  Eggs Hatched %: 20%
  Eggs Hatched % C* (% hatch, normalized to control): 91%
  Eggs Hatched No.: 134
[2]; 2 ppm, 168 hr
  Eggs Hatched %: 25%
  Eggs Hatched % C* (% hatch, normalized to control): 91%
  Eggs Hatched No.: 167
[2]; 5 ppm, 24 hr
  Eggs Hatched %: 9%
  Eggs Hatched % C* (% hatch, normalized to control): 90%
  Eggs Hatched No.: 67
[2]; 5 ppm, 72 hr
  Eggs Hatched %: 14%
  Eggs Hatched % C* (% hatch, normalized to control): 87%
  Eggs Hatched No.: 98
[2]; 5 ppm, 120 hr
  Eggs Hatched %: 18%
  Eggs Hatched % C* (% hatch, normalized to control): 82%
  Eggs Hatched No.: 129
[2]; 5 ppm, 168 hr
  Eggs Hatched %: 22%
  Eggs Hatched % C* (% hatch, normalized to control): 79%
  Eggs Hatched No.: 155
[2]; 10 ppm, 24 hr
  Eggs Hatched %: 9%
  Eggs Hatched % C* (% hatch, normalized to control): 90%
  Eggs Hatched No.: 62
[2]; 10 ppm, 72 hr
  Eggs Hatched %: 13%
  Eggs Hatched % C* (% hatch, normalized to control): 81%
  Eggs Hatched No.: 90
[2]; 10 ppm, 120 hr
  Eggs Hatched %: 17%
  Eggs Hatched % C* (% hatch, normalized to control): 77%
  Eggs Hatched No.: 118
[2]; 10 ppm, 168 hr
  Eggs Hatched %: 20%
  Eggs Hatched % C* (% hatch, normalized to control): 71%
  Eggs Hatched No.: 141
[2]; 20 ppm, 24 hr
  Eggs Hatched %: 9%
  Eggs Hatched % C* (% hatch, normalized to control): 90%
  Eggs Hatched No.: 59
[2]; 20 ppm, 72 hr
  Eggs Hatched %: 12%
  Eggs Hatched % C* (% hatch, normalized to control): 75%
  Eggs Hatched No.: 80
[2]; 20 ppm, 120 hr
  Eggs Hatched %: 15%
  Eggs Hatched % C* (% hatch, normalized to control): 68%
  Eggs Hatched No.: 102
[2]; 20 ppm, 168 hr
  Eggs Hatched %: 18%
  Eggs Hatched % C* (% hatch, normalized to control): 64%
  Eggs Hatched No.: 122
[2]; 40 ppm, 24 hr
  Eggs Hatched %: 9%
  Eggs Hatched % C* (% hatch, normalized to control): 90%
  Eggs Hatched No.: 60
[2]; 40 ppm, 72 hr
  Eggs Hatched %: 12%
  Eggs Hatched % C* (% hatch, normalized to control): 75%
  Eggs Hatched No.: 76
[2]; 40 ppm, 120 hr
  Eggs Hatched %: 14%
  Eggs Hatched % C* (% hatch, normalized to control): 64%
  Eggs Hatched No.: 94
[2]; 40 ppm, 168 hr
  Eggs Hatched %: 15%
  Eggs Hatched % C* (% hatch, normalized to control): 54%
  Eggs Hatched No.: 103
